The structures appear in SMILES notation. Some results are limits rather than exact numbers.

In one experiment the test system is myogenin promoter. As to the kind of experiment: secreted MyoG luciferase assay system (myogenin promoter-secreted luciferase C2C12 myoblast line). It counts as cell-based. The conditions noted are these: for luciferase activity increase as compared to the negative control: negative control (MeOH) set at 1. From the text: To evaluate the myoblast differentiation-promoting capability of sobrerol, a secreted MyoG luciferase assay system was used (FIG. 1). Specifically, the promoter portion of myogenin, which is a protein whose expression is increased upon myogenesis, was cloned into a secreted luciferase vector (pMetLuc2-Reporter Vector, Clontech), and then the vector was transfected into myoblasts C2C12 to prepare a myogenin promoter-secreted luciferase C2C12 myoblast line capable of stably expressing the luciferase enzyme The differentiation degree of the myoblasts into myotube cells can be quantitatively verified through the system in which the luciferase enzymes are secreted into the medium as the myogenin promoter is activated. To induce differentiation into muscle cells, DMEM (Dulbecco's Modified Eagle Medium, Invitrogen) medium supplemented with 2% horse serum was added to the C2C12 myoblasts. Herein, the expressed MEF2 and MyoD bind to the myogenin promoter, and then the luciferase enzymes are expressed and secreted out of the cell. Since the secreted luciferase enzymes are present in the medium, it can be measured to verify the degree of myogenesis. […] Specific experimental methods are as follows. On the first day, the C2C12 cells prepared in the Example 1-1 were inoculated into a 96-well plate containing DMEM medium supplemented with 10% bovine serum (FBS) at a concentration of 5×10^3 cells/well. In the morning of the second day, the medium of the well plate was replaced with DMEM medium (Growth medium, GM) supplemented with 10% bovine serum, which is the same component. In the afternoon, the medium (GM) was collected. Then, each well was treated with 100 μL of DMEM medium (differentiation medium 1, DM1) supplemented with 2% horse serum diluted with the sobrerol at each concentration. On the third day, the DM1 medium was collected, and the wells were treated with the same medium as in the second day (DM2). On the fourth day, the DM2 was collected. The media containing the luciferase secreted in the differentiation process of C2C12 cells were collected starting from the growth medium (GM) to the first day differentiation medium (DM1) and the second day differentiation medium (DM2) as described above, and 5 μL of coelenterazine as a substrate was added to 50 μL of the collected medium containing the luciferase enzyme, and the generated light was measured using a luminometer. The myogenesis-promoting capability of sobrerol at each concentration was measured through digitization by subtracting the measured values of DM0 from the measured values of DM1 and DM2. […] Ready-To-Glow™ Secreted Luciferase Reporter Systems (Clontech) was used as the luciferase assay kit, and the experiment was repeated three times.

The subject of experiment [1] is myosin heavy chain (MyHC). As to the kind of experiment: qRT-PCR of myogenic regulatory factor mRNA in C2C12 myoblasts: myosin heavy chain. The conditions noted are these: 0.1 μM sobrerol, 48 hours, growth medium. It counts as cell-based. Here is the method: Experiments were conducted to verify the effect of sobrerol on mRNA of myogenic regulatory factor. Specifically, the myoblasts (C2C12 myoblast cells) placed in the growth medium were treated with 0.1 μM sobrerol for 48 hours, and then subjected to qRT-PCR to measure the levels of MyoD, myogenin, and myosin heavy chain (MyHC).
(Quantitative PCR measures a nucleic acid by following its amplification.)

The next experiment concerns male C57BL/6 mice. As to the kind of experiment: muscle weight measurement after exercise restriction. It counts as in vivo. The conditions noted are these: oral. Here is the method: A total of 45 male C57BL/6 mice at 5 weeks of age (Daehan BioLink) were used in this animal experiment. After 2 weeks of adaptation to the surrounding environment, sobrerol was orally administered twice daily since 7 weeks of age. The control group was administered with 200 μL of water/20 g of mouse, and sobrerol was orally administered at a ratio of 1:2:4 [8.8 mg/200 μL/20 g (mouse), 17.6 mg/200 μL/20 g (mouse) and 35.3 mg/200 μL/20 g (mouse)] to verify dose dependency. At 8 weeks of age, both hind limbs of the mice were immobilized for 10 days using a surgical stapler (Autosuture Royal 35W stapler). (A novel hindlimb immobilization procedure for studying skeletal muscle atrophy and recovery in mouse. J Appl Physiol 106: 2049-2059, 2009). After removing the surgical stapler, they were allowed to move again for 3 days (remobilization), and then exercise capability improvement-verification tests (treadmill, and grip tests) were conducted. As a result, the diameters of the muscle fibers of the mice orally administered with sobrerol were larger than those of the control group orally administered with distilled water (FIG. 11).

The test system of experiment [2] is female C57BL/6 mice at the age of 21 months. The experiment can be described thus: grip strength test in aged mice. It counts as in vivo. The conditions noted are these: oral for 5 weeks. As to the method: The grip strength was measured using a grip strength measuring device for mouse (BIOSEB) (FIG. 6). Specifically, the front limbs of the mice of the Example 3-1 were placed on a wire net attached to an instrument panel capable of monitoring the strength, and the strength to hold the wire net was measured while the tail was gripped and pulled downward. The test was repeated three times in succession.
Experiments were conducted to confirm whether sobrerol increases muscle strength in aged mice. Female C57BL/6 mice at the age of 21 months were adapted to the environment for 2 weeks and then orally administered with drugs for 5 weeks. Specifically, the negative control group was administered with water, the positive control group was administered with clenbuterol at a concentration of 2 mg/kg (mouse), and the sobrerol administration experimental group was orally administered with sobrerol at a concentration of 17.6 or 35.3 mg/kg (mouse). Then, locomotion tests (grip strength, treadmill) were conducted again to verify the effect.
The grip strength test is the same as the Example 3-2.

Consider `CC1=CCC(C(C)(C)O)CC1O` (centres unmarked) [sobrerol], for which the “luciferase activity increase as compared to the negative control” value with myogenin promoter (0.01 nM sobrerol, C2C12) was at least 1.2 fold. The “luciferase activity versus control group” value with myogenin promoter (0.01 nM to 10 μM sobrerol, C2C12) is “higher luciferase activity than the control group”. In addition, in the experiment on myogenin promoter (0.1 nM sobrerol, C2C12), the “luciferase activity increase as compared to the negative control” value was “about 1.5 fold”. For the same compound, in the experiment on myogenin promoter (C2C12 myogenin promoter luciferase), the “concentration with the greatest differentiation-promoting capability” value amounted to 0.1 nM. Besides, the “myosin heavy chain mRNA increase” value in experiment [1] is listed as at least 25 fold. In the experiment with male C57BL/6 mice, the “weight of extensor digitorum longus (EDL)” value is recorded as “significantly increased”, the “weight of gastrocnemius (GA)” value was “significantly increased”, the weight of soleus entry was “significantly increased” and the “weight of tibialis anterior (TA)” value is “significantly increased”. Moreover, the “first measured grip strength values, difference between groups” value in experiment [2] is “no differences”. Further, in experiment [2] (sobrerol 17.6 or 35.3 mg/kg, clenbuterol 2 mg/kg), the “fatigue (grip strength weakening) on repeated grip strength measurement” value is recorded as “did not show the increase in fatigue”.

(Values after US10765642B2, “Composition for preventing or treating muscle weakness-related diseases comprising sobrerol” (KOREA RESEARCH INSTITUTE OF BIOSCIENCE AND BIOTECHNOLOGY, priority 2015, dated 2020).)
